Laboratory results taken from patent US20020052377A1, “Method for treating angina” (priority 2000, published 2002).
Read-outs that look alike come from different tables or passages of the source.

Key:
[1] = Peak and trough ranolazine plasma concentrations, IR regimens (Example 3); type: in vivo; conditions: human, oral
Protocol: In this Example, the safety and anti-ischemic effects of high plasma ranolazine levels in a large group of angina patients was evaluated and the duration of any effects during steady-state dosing with bid and tid regimens was assessed. In this Example, patients with chronic stable angina pectoris who were responsive to conventional antianginal drugs were treated with 3 ranolazine.2HCl dosing regimens: 267 mg tid, 400 mg bid and 400 mg tid IR Formulations of Example 1. Exercise testing parameters and ranolazine free base concentrations were determined at peak and trough plasma levels.
(§1) After each 1 week period, patients returned to the exercise laboratory in the morning, at least 1 hour after a light breakfast, for an ETT. This was designated the trough ETT; the trough ETTs were performed at the same time of day for each patient. After completing the trough ETT, the patient received the next scheduled blinded medication dose from the blister pack used that week. Another ETT was performed 1 hour after the administered dose. This was designated the peak ETT. Blood samples were obtained at trough (approximately 8 hours after dosing) and at peak (1 hour after dosing). Other standard laboratory tests were monitored regularly throughout the study.

[2] = system: patients with chronic stable angina pectoris; test: Safety, tolerability and hemodynamics, IR regimens (Example 3); type: in vivo, human
Protocol: as §1, with “study. Blood pressure (by cuff) and heart rate were monitored before all ETTs, during the ETT, during the last minute of each stage of the test, at onset angina, at the point of maximum exercise, and during recovery (every minute for 4 minutes, then every 5 minutes until values returned to baseline). Heart rates also was monitored continuously and standard 12-lead ECG recordings were done immediately before exercise with the patient standing on the treadmill, at the end of each stage of exercise, at the maximally tolerated exercise load, and at the termination of exercise.” for “study.”

[3] = system: patients with stable angina; test: MARISA exercise testing (modified Bruce protocol), sustained release ranolazine; type: in vivo, human
Protocol: is the first study of sustained release ranolazine (SR) in stable angina. Methods: Patients withdrawn from other anti-anginal drugs with reproducible angina-limited exercise duration and ≧1 mm ST depression were randomized to Ran (500 mg bid, 1000 mg bit and 1500 mg bid) and matching placebo (Pbo) in a double-blind, four-period, Latin square crossover design. Exercise testing with a modified Bruce protocol was performed at both trough (12 hr after dosing) and peak (4 hr after dosing). Results: 49 centers in the USA, Czech Republic, Poland and Canada randomized 191 patients. 168 completed all 4 double-blind treatment periods; 7 more completed 3 of 4 periods.

[4] = system: patients with chronic angina, with or without history of heart failure; test: MARISA exercise duration, patients with or without history of heart failure (HF); type: in vivo, human
Protocol: This Example evaluates the effectiveness of ranolazine (Ran) in human patients with chronic angina and a history of heart failure. The […] (Monotherapy Assessment of Ranolazine In Stable Angina) study randomized patients to Ran (500 mg, 1000 mg and 1500 mg bid) and placebo in a double-blind, 4 period, crossover design study. […] All patients performed a modified Bruce exercise test at the time of trough (morning) and peak (afternoon) drug levels on each treatment.

[5] = system: regional myocardial ischemia and reperfusion; test: Rat model of regional myocardial ischemia and reperfusion (LAD-occlusion); type: in vivo, Male Wistar rats; conditions: LAD-occlusion 25 min, reperfusion 2 h, bolus 10 mg/kg + infusion 96. mg/kg/h from 30 min before occlusion, mean±SEM, n=12
Protocol: The aim of this study was to investigate whether ranolazine exerts beneficial effects in a rat model of regional myocardial ischemia and reperfusion. Methods: Male Wistar rats were subjected to no LAD-occlusion (sham) or LAD-occlusion (25 min) and reperfusion (2 h). Saline (bolus: 2.4 mL/kg+infusion: 24. mL/kg/h) or ranolazine (bolus: 10 mg/kg +infusion; 96. mg/kg/h) were infused 30 min before LAD-occlusion and throughout the experiment. At the end of the experiment area at risk (AR, % of left ventricle), infarct size (IS, % of AR), and plasma cardiac troponin T (cTnT, ng/mL) were determined. The following groups were studied: Group 1. sham saline (n=4), Group 2. saline control (n=12), Group 3. ranolazine (n=12).

COc1ccccc1OCC(O)CN1CCN(CC(=O)Nc2c(C)cccc2C)CC1 (racemic) [Ranolazine, (±)-N-(2,6-dimethylphenyl)-4-[2-hydroxy-3-(2-methoxyphenoxy)propyl]-1-piperazine-acetamide]
concentration at 1 h ([1]; female, 267 mg, Females, IR 267 mg tid, read-out: Ranolazine Plasma Concentration, Peak, mean (SD)): 1590 ng/mL
concentration at 8 h ([1]; female, 267 mg, Females, IR 267 mg tid, read-out: Ranolazine Plasma Concentration, Trough, mean (SD)): 316 ng/mL
concentration at 1 h ([1]; female, 400 mg, Females, IR 400 mg bid, read-out: Ranolazine Plasma Concentration, Peak, mean (SD)): 2170 ng/mL
concentration at 8 h ([1]; female, 400 mg, Females, IR 400 mg bid, read-out: Ranolazine Plasma Concentration, Trough, mean (SD)): 235 ng/mL
concentration at 1 h ([1]; female, 400 mg, Females, IR 400 mg tid, read-out: Ranolazine Plasma Concentration, Peak, mean (SD)): 2650 ng/mL
concentration at 8 h ([1]; female, 400 mg, Females, IR 400 mg tid, read-out: Ranolazine Plasma Concentration, Trough, mean (SD)): 505 ng/mL
concentration at 1 h ([1]; 267 mg, All Patients, IR 267 mg tid, read-out: Ranolazine Plasma Concentration, Peak, mean (SD)): 1350 ng/mL
concentration at 8 h ([1]; 267 mg, All Patients, IR 267 mg tid, read-out: Ranolazine Plasma Concentration, Trough, mean (SD)): 316 ng/mL
concentration at 1 h ([1]; 400 mg, All Patients, IR 400 mg bid, read-out: Ranolazine Plasma Concentration, Peak, mean (SD)): 1880 ng/mL
concentration at 8 h ([1]; 400 mg, All Patients, IR 400 mg bid, read-out: Ranolazine Plasma Concentration, Trough, mean (SD)): 235 ng/mL
concentration at 1 h ([1]; 400 mg, All Patients, IR 400 mg tid, read-out: Ranolazine Plasma Concentration, Peak, mean (SD)): 2130 ng/mL
concentration at 8 h ([1]; 400 mg, All Patients, IR 400 mg tid, read-out: Ranolazine Plasma Concentration, Trough, mean (SD)): 514 ng/mL
concentration at 8 h ([1]; across the 3 IR dosing regimens, read-out: Mean trough ranolazine plasma concentrations): 235 to 514 ng/mL
concentration at 1 h ([1]; across the 3 IR dosing regimens, read-out: plasma mean peak concentrations, ranolazine free base): 1350 to 2130 ng/mL
concentration at 1 h ([1]; male, 267 mg, Males, IR 267 mg tid, read-out: Ranolazine Plasma Concentration, Peak, mean (SD)): 1260 ng/mL
concentration at 8 h ([1]; male, 267 mg, Males, IR 267 mg tid, read-out: Ranolazine Plasma Concentration, Trough, mean (SD)): 316 ng/mL
concentration at 1 h ([1]; male, 400 mg, Males, IR 400 mg bid, read-out: Ranolazine Plasma Concentration, Peak, mean (SD)): 1760 ng/mL
concentration at 8 h ([1]; male, 400 mg, Males, IR 400 mg bid, read-out: Ranolazine Plasma Concentration, Trough, mean (SD)): 235 ng/mL
concentration at 1 h ([1]; male, 400 mg, Males, IR 400 mg tid, read-out: Ranolazine Plasma Concentration, Peak, mean (SD)): 1920 ng/mL
concentration at 8 h ([1]; male, 400 mg, Males, IR 400 mg tid, read-out: Ranolazine Plasma Concentration, Trough, mean (SD)): 518 ng/mL
blood glucose concentrations, lipid values or liver function tests ([2]; IR dosing regimens): no clinically significant changes
ECG intervals or complex morphology ([2]; IR dosing regimens vs placebo): no drug-related changes
tolerability ([2]; over the plasma concentrations achieved in the study): well tolerated
Time to 1 mm ST Depression ([3]; SR 500 mg bid, peak): 479 s
Time to Angina ([3]; SR 500 mg bid, peak): 452 s
Exercise Duration ([3]; SR 500 mg bid, peak (4 hr after dosing)): 532 s
Time to 1 mm ST Depression ([3]; SR 500 mg bid, trough): 470 s
Time to Angina ([3]; SR 500 mg bid, trough): 437 s
Exercise Duration ([3]; SR 500 mg bid, trough (12 hr after dosing)): 533 s
Time to 1 mm ST Depression ([3]; SR 1000 mg bid, peak): 502 s
Time to Angina ([3]; SR 1000 mg bid, peak): 474 s
Exercise Duration ([3]; SR 1000 mg bid, peak (4 hr after dosing)): 555 s
Time to 1 mm ST Depression ([3]; SR 1000 mg bid, trough): 491 s
Time to Angina ([3]; SR 1000 mg bid, trough): 457 s
Exercise Duration ([3]; SR 1000 mg bid, trough (12 hr after dosing)): 545 s
Time to 1 mm ST Depression ([3]; SR 1500 mg bid, peak): 508 s
Time to Angina ([3]; SR 1500 mg bid, peak): 487 s
Exercise Duration ([3]; SR 1500 mg bid, peak (4 hr after dosing)): 561 s
Time to 1 mm ST Depression ([3]; SR 1500 mg bid, trough): 514 s
Time to Angina ([3]; SR 1500 mg bid, trough): 472 s
Exercise Duration ([3]; SR 1500 mg bid, trough (12 hr after dosing)): 559 s
LS mean ED ([4]; HF n=29, 500 mg bid, peak): 518 s
LS mean ED ([4]; HF n=29, 500 mg bid, trough): 512 s
LS mean ED ([4]; HF n=29, 1000 mg bid, peak): 520 s
LS mean ED ([4]; HF n=29, 1000 mg bid, trough): 514 s
LS mean ED ([4]; HF n=29, 1500 mg bid, peak): 545 s
LS mean ED ([4]; HF n=29, 1500 mg bid, trough): 524 s
LS mean ED ([4]; No HF n=146, 500 mg bid, peak): 538 s
LS mean ED ([4]; No HF n=146, 500 mg bid, trough): 539 s
LS mean ED ([4]; No HF n=146, 1000 mg bid, peak): 563 s
LS mean ED ([4]; No HF n=146, 1000 mg bid, trough): 551 s
LS mean ED ([4]; No HF n=146, 1500 mg bid, peak): 564 s
LS mean ED ([4]; No HF n=146, 1500 mg bid, trough): 563 s
area at risk (AR) [5]: 48±1 % of left ventricle
infarct size (IS) [5]: 41±4 % of AR
plasma cardiac troponin T (cTnT) [5]: 12 ± 2 ng/mL
